Test results: patent US7691601B2, “Medium for detecting and/or identifying of microorganisms” (priority 2003, dated 2010)

Columns and labels:
[1] = tested on: Staphylococcus aureus strains; experiment: Coloration of Staphylococcus aureus colonies, castanospermine medium; assay type: cell-based; set-up: key to Colonies coloration: 0=no coloration; 0.5=trace of coloration; 1=weak coloration; 2=strong coloration; conditions: for Colonies coloration: Table 6
Method: (§1) Seeding of Salmonella bacteria: 10 μl of stools are deposited onto a Petri dish, this stool suspension is mixed or not mixed with 10 μl of a suspension of Salmonella (0.5 McF) and isolated as 3 dials on a Petri dish. Various […] and various Salmonella strains originating from the applicant's collection are used according to this protocol. The Petri dishes are incubated at 37° C. for 24 hours. The appearance of a coloration at the point of deposit of the stool (“deposit” column) and at the Salmonella colony (“colony” column) is read according to a semi-quantitative scale: • 0=no coloration • 0.5=trace of coloration • 1=weak coloration • 2=strong coloration The results obtained are given in Table 1.
(§2) Preparation of the detection medium: 250 ml of the medium of Example 1, in which the O,O-diethyl p-nitrophenyl phosphate is replaced with various concentrations of castanospermine: 0, 1, 2, 4 and 8 g/l, are prepared according to the method of Example 1.
(§3) The various detection media thus obtained are poured into Petri dishes.
(§4) Seeding of Staphylococcus aureus strains: The Petri dishes are inoculated, incubated and read as in Example 1.

[2] = tested on: free α-glucosidase in a sample (stools); experiment: Coloration at the point of deposit of the stool, castanospermine medium; assay type: biochemical; set-up: key to Deposit coloration: 0=no coloration; 0.5=trace of coloration; 1=weak coloration; 2=strong coloration; conditions: for Deposit coloration: Table 6
Method: as §1, §2, §3, §4

[3] = Colonies column read for stool without added strain, castanospermine medium; set-up: key: 0=no coloration; 0.5=trace of coloration; 1=weak coloration; 2=strong coloration; conditions: Table 6, no strain
Method: as §1, §2, §3, §4

[4] = 1 g/l, stool A, Staphylococcus aureus No. 1
[5] = 1 g/l, stool B, Staphylococcus aureus no 2
[6] = 2 g/l, stool A, Staphylococcus aureus No. 1
[7] = 2 g/l, stool B, Staphylococcus aureus no 2
[8] = 4 g/l, stool A, Staphylococcus aureus No. 1
[9] = 4 g/l, stool B, Staphylococcus aureus no 2
[10] = 8 g/l, stool A, Staphylococcus aureus No. 1
[11] = 8 g/l, stool B, Staphylococcus aureus no 2

With castanospermine the “Enzymes originating from the bacteria” value ([1]; Staphylococcus aureus colonies, summary in words) was “not inhibited”, the Colonies coloration [1, 4] was 2 and the Colonies coloration [1, 5] was 2. The Colonies coloration [1, 6] was 2, the Colonies coloration [1, 7] was 2 and the Colonies coloration [1, 8] was 2. It also gave a Colonies coloration [1, 9] of 2, a Colonies coloration [1, 10] of 1 and a Colonies coloration [1, 11] of 1. For the same substance, the Deposit coloration [2, 4] was 2, the Deposit coloration ([2]; 1 g/l, stool A, no strain) was 1 and the Deposit coloration [2, 5] was 2. For the same substance, the Deposit coloration ([2]; 1 g/l, stool B, no strain) was 0.5, the Deposit coloration [2, 6] was 1 and the Deposit coloration ([2]; 2 g/l, stool A, no strain) was 1. For the same substance, the Deposit coloration [2, 7] was 1, the Deposit coloration ([2]; 2 g/l, stool B, no strain) was 0.5 and the Deposit coloration [2, 8] was 1. It also gave a Deposit coloration ([2]; 4 g/l, stool A, no strain) of 0.5, a Deposit coloration [2, 9] of 0.5 and a Deposit coloration ([2]; 4 g/l, stool B, no strain) of 0. For the same substance, the Deposit coloration [2, 10] was 1, the Deposit coloration ([2]; 8 g/l, stool A, no strain) was 0 and the Deposit coloration [2, 11] was 0. The Deposit coloration ([2]; 8 g/l, stool B, no strain) was 0, the “Aspecific enzymatic reactions due to the presence of free enzymes” value ([2]; stools, Staphylococcus aureus identification, summary in words) was “greatly inhibited” and the Colonies coloration ([3]; 1 g/l, stool A) was 0. For the same substance, the Colonies coloration ([3]; 1 g/l, stool B) was 0, the Colonies coloration ([3]; 2 g/l, stool A) was 0 and the Colonies coloration ([3]; 2 g/l, stool B) was 0. It also gave a Colonies coloration ([3]; 4 g/l, stool A) of 0, a Colonies coloration ([3]; 4 g/l, stool B) of 0 and a Colonies coloration ([3]; 8 g/l, stool A) of 0. For the same substance, the Colonies coloration ([3]; 8 g/l, stool B) was 0.
